Data from patent US20260297542A1, “HERBICIDE RESISTANT PLANTS” (SYNGENTA CROP PROTECTION AG, priority 2023, published 2026).
Changes are numbered by the printed parent chain.

Legend:
Assay in all cases: E. coli hemG growth inhibition by herbicide, AtPPO1 variant
Format in all cases: cell-based
Conditions in all cases: read-out: percentage growth inhibition
[1] = molecular target: T1, AtPPO1 F478R (Arabidopsis thaliana, UniProt P55826, F478R)
T1 construct: expressed in transfected cells; host or cells: E. coli BL21(DE3) hemG, pET24a plasmid
T1 sequence (P55826 35-537 F478R): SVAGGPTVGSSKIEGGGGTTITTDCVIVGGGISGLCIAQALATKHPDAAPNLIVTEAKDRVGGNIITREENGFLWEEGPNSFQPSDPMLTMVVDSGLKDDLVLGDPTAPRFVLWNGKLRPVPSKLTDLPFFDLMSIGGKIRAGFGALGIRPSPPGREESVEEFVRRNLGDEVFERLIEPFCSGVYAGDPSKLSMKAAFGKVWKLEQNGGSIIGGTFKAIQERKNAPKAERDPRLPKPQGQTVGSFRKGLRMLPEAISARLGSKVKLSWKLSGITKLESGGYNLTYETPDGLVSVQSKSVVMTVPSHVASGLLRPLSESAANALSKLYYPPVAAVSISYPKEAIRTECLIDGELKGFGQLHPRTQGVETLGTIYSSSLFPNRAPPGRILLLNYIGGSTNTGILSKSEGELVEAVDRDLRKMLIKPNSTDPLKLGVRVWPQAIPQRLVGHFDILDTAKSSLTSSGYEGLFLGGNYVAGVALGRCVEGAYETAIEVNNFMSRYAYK
How it was run: (§1)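 E. coli BL21(DE3) ΔhemG::CmR complemented by AtPPO1 variants (pET24a, T7, E. coli codon-optimised); TB + 0.1 mM IPTG, 1:100 inoculum; 6.25 ppm herbicide 0/E or 0.78 ppm herbicide B vs DMSO; 24 h, 37° C, 250 rpm; OD600 at 24 h → % growth inhibition.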

[2] = molecular target: T2, AtPPO1 Y361T (Arabidopsis thaliana, UniProt P55826, Y361T)
T2 construct: expressed in transfected cells; host or cells: E. coli BL21(DE3) hemG (pET24a, T7 promoter)
T2 sequence (P55826 35-537 Y361T): T1 sequence (P55826 35-537 F478R) with Y327T, R444F
How it was run: as §1

[3] = molecular target: T3, AtPPO1 V218K (Arabidopsis thaliana, UniProt P55826, V218K)
T3 construct: expressed in transfected cells; host or cells: E. coli BL21(DE3) hemG (hemG replaced by CmR), pET24a plasmid
T3 sequence (P55826 35-537 V218K): T1 sequence (P55826 35-537 F478R) with V184K, R444F
How it was run: as §1

[4] = molecular target: T4, AtPPO1 Y219S (Arabidopsis thaliana, UniProt P55826, Y219S)
T4 construct: expressed in transfected cells; host or cells: E. coli BL21(DE3) hemG (hemG replaced by CmR), pET24a plasmid
T4 sequence (P55826 35-537 Y219S): T1 sequence (P55826 35-537 F478R) with Y185S, R444F
How it was run: as §1

In the case of CCOC(=O)[C@]1(C)CC(c2cc(-n3c(=O)n(C)c(=S)n(C)c3=O)c(F)cc2Cl)=NO1 [Herbicide D, ethyl (5S)-3-[2-chloro-5-(3,5-dimethyl-2,6-dioxo-4-thioxo-1,3,5-triazinan-1-yl)-4-fluoro-phenyl]-5-methyl-4H-isoxazole-5-carboxylate], the inhibition at 6.25 ppm [1] is reported as 30%, the inhibition at 6.25 ppm [2] is reported as 44% and the inhibition at 6.25 ppm [3] is reported as 31%. For the same compound, the inhibition at 6.25 ppm [4] was 33%.
In the case of C#CCN1C(=O)C(F)(F)Oc2cc(F)c(-n3c(=O)n(C)c(=S)n(C)c3=O)cc21 [Herbicide B, trifludimoxazin], the inhibition at 0.78 ppm [1] is reported as 23%, the inhibition at 0.78 ppm [2] is reported as 37% and the inhibition at 0.78 ppm [3] is reported as 38%. The inhibition at 0.78 ppm [4] was 28%.
For CC(C)N(C)S(=O)(=O)NC(=O)c1cc(-n2c(=O)cc(C(F)(F)F)n(C)c2=O)c(F)cc1Cl [Herbicide E, saflufenacil], the inhibition at 6.25 ppm [1] was 61%, the inhibition at 6.25 ppm [2] was 37% and the inhibition at 6.25 ppm [3] was 50%. It also gave an inhibition at 6.25 ppm [4] of 49%.
